# Where a name gives a salt, the structure may show the parent alone.
# Target: chymotrypsin (Bos taurus, UniProt P00766)
# Assay: chymotrypsin inhibitory effect (procedure of Muramatsu et al; acetyl-L-tyrosine ethyl ester substrate, Hestrin colour development)
# Type: biochemical
# Settings: 10 min preincubation; 25 mM acetyl-L-tyrosine ethyl ester; 0.1M Tris-HCl pH 8.0; 37° C., 30 min; absorbance 530 nm; read-out: Inhibitory Activity [50% Inhibitory Concentration (M)]
# Protocol: Some selected compounds of this invention were tested with respect to their chymotrypsin inhibitory effects.
# The tests were conducted in accordance with the procedure of Muramatsu et al [The Journal of Biochemistry, 62, 408 (1967)]. A mixture was prepared which was made up of 0.1 ml of a dimethylsulfoxide solution of each test compound, 0.1 ml of water and 0.1 ml of a buffer solution containing 10 μg/ml of chymotrypsin (0.1M Tris-HCl buffer, pH 8.0). The mixture was incubated for 10 minutes, followed by addition of 0.2 ml of a buffer solution containing 25 mM of an ethyl ester of acetyl-L-tyrosine. The resulting mixture was reacted at 37° C. for 30 minutes. The remaining substrate was caused to develop a color by the Hesterin method, whereupon its absorbance was measured at 530 nm. As a comparative compound, use was made of tosylphenylalanine chloromethyl ketone (TPCK) which is known as an inhibitor for chymotrypsin.
# The results are shown in Table 1 in which the numbers of the test compounds are indicated as those of the corresponding examples given hereunder.
row,SMILES,IC50
1,CC(C)N1CCN(C(=O)C=Cc2ccc(OC(=O)C3CCCc4ccccc43)cc2)CC1 (centres unmarked) [Example 2],3e-06 M
2,CN1CCN(C(=O)C=Cc2ccc(OC(=O)C3CCCc4ccccc43)cc2)CC1 (centres unmarked) [Example 4],6e-07 M
3,CC(C)N1CCN(C(=O)COC(=O)c2ccc(OC(=O)C3CCCc4ccccc43)cc2)CC1 (centres unmarked) [Example 5],3e-08 M

# The remaining lines, values ahead:
row,IC50,SMILES
1,4e-06 M,"CC(C)N1CCN(CC(=O)Nc2ccc(OC(=O)C3CCCc4ccccc43)cc2)CC1 (centres unmarked) [Example 1, 1-Isopropyl-4-[{4-(1,2,3,4-tetrahydro-1-naphthoyloxy)-phenyl}carbamoylmethyl]piperazine.dihydrochloride]"
2,7e-07 M,CC(C)N1CCN(CCNC(=O)c2ccc(OC(=O)C3CCCc4ccccc43)cc2)CC1 (centres unmarked) [Example 3]

# Reference: US4620005A, “1-isopropyl-4[(4-tetrahydro-1-naphthoyloxy phenyl)(alkylene)-carbonyl(oxymethlcarbonyl)]piperazines having chymotrypsin-inhibitory activity” (Kowa Co., Ltd., priority 1983, dated 1986)
